Key:
[1] = target: type I activin/nodal receptor ALK4; details: Tocris catalog description; cited from earlier work
[2] = target: type I nodal receptor ALK7; details: Tocris catalog description; cited from earlier work
[3] = system: ALK-1, -2, -3, -6 and MAPK activity; details: Tocris catalog description; cited from earlier work
[4] = system: co-cultures of the fibroblasts and organoids; assay: Imaging of organoid morphology and area in organoid-fibroblast co-cultures (Calcein AM stain); assay type: cell-based, human; details: 10 µM tofacitinib; Figure 5A; measured in accordance with Example 4
Method: (§1) In Examples 4-9, fibroblast cultures, organoid cultures, and co-cultures of the fibroblasts and organoids, were prepared according to Examples 1-2. OSM (1 ng/mL) and IL-1β (1 ng/mL) were added to the co-cultures according to Example 3 where "proinflammatory stimuli" or "proinflammatory stimulation" are specified in Examples 4-9. Co-cultures were then incubated on plates for 72 hours at 37°C and 5% CO2 prior to cytokine or caspase analysis, or for 96 hours at 37°C and 5% CO2 prior to imaging analysis.
Organoids in co-culture were first stained with Calcein AM. 48 hours after the organoids and fibroblasts were combined in co-culture, 50 µL DMSO was added to a vial of Calcein AM and mixed. 88 µL of the mixture was added to 4,312 µL of Ad-DF+++ media. 10 µL of the final Calcein AM mixture was added to co-cultures before 5-10 seconds of shaking in a Tecan D300. Plates were then incubated for 2 hours at 37°C and 5% CO2. Imaging were then performed to assess organoid morphology.

caspase 3/7 activity = assay: Caspase-Glo assay of apoptosis in organoid-fibroblast co-cultures challenged with TNF and IFNγ; assay type: cell-based, human; details: 10 µM tofacitinib; upon exposure to inflammatory cytokines; Figure 5B; measured in accordance with Example 6
Method: as §1
72 hours after organoids and fibroblasts were combined in co-culture, apoptosis in co-culture was triggered using inflammatory stimuli (in the form of damage-inducing cytokines), and measured 24 hours later, in co-cultures prepared using proinflammatory stimuli and in co-cultures not prepared using proinflammatory stimuli.
Stock solutions of TNF and IFNγ were diluted 1:1 with 0.6% Tween in PBS, and were added to the co-cultures at concentrations of 15 ng/mL and 15 ng/mL respectively. Plates were then incubated for 24 hours.
Apoptosis was assessed using a Caspase-Glo assay (e.g. Promega) to determine relative caspase 3/7 activity. Briefly, 95 µL of room-temperature caspase reagent was added to each plate. Plates were then shaken for 1 minute before incubation in the dark at room temperature for 30 minutes. […]

Cc1cccc(-c2nn(C(=S)Nc3ccccc3)cc2-c2ccnc3ccccc23)n1 [A83-01]
IC50 [1]: 45 nM
IC50 [2]: 7.5 nM
inhibition of ALK-1, -2, -3, -6 and MAPK activity [3]: only weakly inhibits

C[C@@H]1CCN(C(=O)CC#N)C[C@@H]1N(C)c1ncnc2[nH]ccc12 [tofacitinib]
change in morphology [4]: small change
caspase activity (caspase 3/7 activity): greatly diminishes

From patent publication EP4495227A1, “CO-CULTURES OF ORGANOIDS AND STROMAL CELLS” (HUB Organoids IP B.V., priority 2023, dated 2025)
